What was measured:
PDE7 = PDE7 Assay Procedure ([3H]-cAMP SPA); format: biochemical; conditions: PDE7 inhibition, 15 nM 3',5'[3H]-cAMP, 1 hour at room temperature
Experimental: All compounds are resuspended in DMSO at a stock concentration of 10 mM. […] All dilutions are performed in 96 well plates.
For each reaction, 10 microliters of the diluted compounds are poured into “low binding” assay plates. 80 microliters of a reaction mixture containing 50 mM Tris pH 7.5, 8.3 mM MgCl2, 1.7 mM EGTA, and 15 nM 3′,5′[3H]-cAMP (around 150000 dpm) are added to each well. The reaction is initiated by adding 10 microliters of a solution containing PDE7 to the reaction mixture. The plate is then incubated under stirring for 1 hour at room temperature. After incubation the reaction is stopped with 50 microlitres (0.89 mg) of PDE SPA beads (Amersham Pharmacia Biotech RPNQ0150), and the resulting mixture is allowed to settle for 20 minutes before counting in a microtitre plate counter.

Row | IC50 (PDE7) | melting point | SMILES
1 | < 1 µM | 194 to 196 °C | COc1ccc(-c2nc(N3CCOCC3)c3c(C)c(C#N)sc3n2)cc1OC [Example 31, 2-(3,4-Dimethoxyphenyl)-5-methyl-4-morpholin-4-ylthieno[2,3-d]pyrimidine-6-carbonitrile]
2 | – | > 290 °C | COc1cc(-c2nc(N(C)CCN)c3c(C)c(C#N)sc3n2)cc(OC)c1OC [Example 86, 4-[(2-Aminoethyl)(methyl)amino]-5-methyl-2-(3,4,5-trimethoxyphenyl)thieno[2,3-d]pyrimidine-6-carbonitrile]
3 | – | 179 to 181 °C | CCCNc1nc(-c2ccc(OC)c(OC)c2)nc2sc(C#N)c(C)c12 [Example 47, 2-(3,4-Dimethoxyphenyl)-5-methyl-4-(propylamino)thieno[2,3-d]pyrimidine-6-carbonitrile]
4 | – | 125 to 128 °C | CCN(C)c1nc(-c2ccc(C(=O)OC)cc2)nc2sc(C#N)c(C)c12 [Example 57]
5 | – | 162 to 164 °C | C=CCN(C)c1nc(-c2cc(OC)c(OC)c(OC)c2)nc2sc(C#N)c(C)c12 [Example 78, 4-[Allyl(methyl)amino]-5-methyl-2-(3,4,5-trimethoxyphenyl)thieno[2,3-d]pyrimidine-6-carbonitrile]
6 | – | 250 °C | Cc1c(C#N)sc2nc(-c3ccc([N+](=O)[O-])cc3)nc(N3CCNCC3)c12 [Example 13, 5-Methyl-2-(4-nitrophenyl)-4-piperazin-1-ylthieno[2,3-d]pyrimidine-6-carbonitrile]
7 | – | 88 to 90 °C | Cc1c(C#N)sc2nc(Cc3ccccc3)nc(N3CCOCC3)c12 [Example 58, 2-Benzyl-5-methyl-4-morpholin-4-yl-thieno[2,3-d]pyrimidine-6-carbonitrile]
8 | – | 98 to 100 °C | C=CCN(C)c1nc(Cc2ccc(OC)c(OC)c2)nc2sc(C#N)c(C)c12 [Example 102, 4-[Allyl(methyl)amino]-2-(3,4-dimethoxybenzyl)-5-methylthieno[2,3-d]pyrimidine-6-carbonitrile]
9 | – | 67 to 70 °C | COc1ccc(Cc2nc(N3CCOCC3)c3c(C)c(C#N)sc3n2)cc1OC [Example 92, 2-(3,4-Dimethoxybenzyl)-5-methyl-4-morpholin-4-ylthieno[2,3-d]pyrimidine-6-carbonitrile]
10 | – | 96 to 98 °C | CCCCN(CCCC)c1nc(-c2ccc(OC)cc2)nc2sc(C#N)c(C)c12 [Example 14, 4-(Dibutylamino)-2-(4-methoxyphenyl)-5-methylthieno[2,3-d]pyrimidine-6-carbonitrile]
11 | – | 149 to 151 °C | COc1ccc(Cc2nc(NCCO)c3c(C)c(C#N)sc3n2)cc1OC [Example 104, 2-(3,4-Dimethoxybenzyl)-4-[(2-hydroxyethyl)amino]-5-methylthieno[2,3-d]pyrimidine-6-carbonitrile]
12 | – | 196 to 197 °C | Cc1c(C#N)sc2nc(-c3ccc4c(c3)OCO4)nc(N3CCN(C)CC3)c12 [Example 34]
13 | – | 62 to 63 °C | COc1ccc(Cc2nc(N(C)CCO)c3c(C)c(C#N)sc3n2)cc1OC [Example 105, 2-(3,4-Dimethoxybenzyl)-4-[(2-hydroxyethyl)(methyl)amino]-5-methylthieno[2,3-d]pyrimidine-6-carbonitrile]
14 | – | 195 to 197 °C | Cc1c(C#N)sc2nc(-c3ccc4c(c3)OCO4)nc(N(C)CCO)c12 [Example 43, 2-(1,3-Benzodioxol-5-yl)-4-[(2-hydroxyethyl)(methyl)amino]-5-methylthieno[2,3-d]pyrimidine-6-carbonitrile]
15 | – | 94 to 97 °C | COCCNc1nc(Cc2ccc(OC)c(OC)c2)nc2sc(C#N)c(C)c12 [Example 106, 2-(3,4-Dimethoxybenzyl)-4-[(2-methoxyethyl)amino]-5-methylthieno[2,3-d]pyrimidine-6-carbonitrile]
16 | – | 202 to 204 °C | COc1ccc(-c2nc(N3CCCCC3)c3c(C)c(C#N)sc3n2)cc1 [Example 6, 2-(4-Methoxyphenyl)-5-methyl-4-piperidin-1-ylthieno[2,3-d]pyrimidine-6-carbonitrile]
17 | – | 144 to 146 °C | COc1ccc(-c2nc(N(C)CCO)c3c(C)c(C#N)sc3n2)cc1 [Example 25, 4-[(2-Hydroxyethyl)(methyl)amino]-2-(4-methoxyphenyl)-5-methylthieno[2,3-d]pyrimidine-6-carbonitrile]
18 | – | 213 to 215 °C | COc1cc(-c2nc(N3CCNC(C)C3)c3c(C)c(C#N)sc3n2)cc(OC)c1OC (stereo not shown) [Example 83, 5-Methyl-4-(3-methylpiperazin-1-yl)-2-(3,4,5-trimethoxyphenyl)thieno[2,3-d]pyrimidine-6-carbonitrile]
19 | – | 204 to 206 °C | COc1ccc(-c2nc(N3CCOCC3)c3c(C)c(C#N)sc3n2)cc1 [Example 22, 2-(4-Methoxyphenyl)-5-methyl-4-morpholin-4-ylthieno[2,3-d]pyrimidine-6-carbonitrile]
20 | – | 195 to 197 °C | COc1cc(-c2nc(NC(C)(C)C)c3c(C)c(C#N)sc3n2)cc(OC)c1OC [Example 74, 4-(tert-Butylamino)-5-methyl-2-(3,4,5-trimethoxyphenyl)thieno[2,3-d]pyrimidine-6-carbonitrile]
21 | – | > 250 °C | Cc1c(C#N)sc2nc(-c3ccncc3)nc(N3CCOCC3)c12 [Example 41, 5-Methyl-4-morpholin-4-yl-2-pyridin-4-ylthieno[2,3-d]pyrimidine-6-carbonitrile]
22 | – | 206 to 207 °C | Cc1ccc(-c2nc(N3CCOCC3)c3c(C)c(C#N)sc3n2)cc1 [Example 32, 5-Methyl-2-(4-methylphenyl)-4-morpholin-4-ylthieno[2,3-d]pyrimidine-6-carbonitrile]
23 | – | 142 to 144 °C | Cc1c(C#N)sc2nc(-c3ccccc3)nc(N3CCCCC3)c12 [Example 4, 5-Methyl-2-phenyl-4-piperidin-1-ylthieno[2,3-d]pyrimidine-6-carbonitrile]
24 | – | 207 to 208 °C | CCNc1nc(-c2cc(OC)cc(OC)c2)nc2sc(C#N)c(C)c12 [Example 134]

Reference: patent publication US7662814B2, “4-aminothieno[2,3-d]pyrimidine-6-carbonitrile derivatives as PDE7 inhibitors” (Laboratorios Almirall, S.A., priority 2003, dated 2010)
